Data published in PubChem BioAssay (NCI).
“And” between values parts separate entries of the source, which are not always exact repeats. Equal entries are not always repeated.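 Tested at 5 concentrations; 48 h exposure; 96-well plates; endpoints linearly interpolated, else capped at highest concentration. GI50: concentration for 50% inhibition of growth. At the TGI there is no net growth.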

How the values were obtained:
Assay in all cases: NCI anticancer screen, dose series, 48 h
M14 melanoma = system: M14 melanoma
HT29 colon = system: HT29 colon
HOP-62 NSCLC = system: HOP-62 NSCLC
HCT-116 colon = system: HCT-116 colon
SK-MEL-2 melanoma = system: SK-MEL-2 melanoma
PC-3 prostate = system: PC-3 prostate
SW-620 colon = system: SW-620 colon

Row | SMILES | GI50 (M14 melanoma) | GI50 (HT29 colon) | TGI (HT29 colon) | GI50 (HOP-62 NSCLC) | TGI (HOP-62 NSCLC) | GI50 (HCT-116 colon) | TGI (HCT-116 colon) | GI50 (SK-MEL-2 melanoma) | TGI (SK-MEL-2 melanoma) | GI50 (PC-3 prostate) | TGI (PC-3 prostate) | GI50 (SW-620 colon) | TGI (SW-620 colon) | TGI (M14 melanoma)
1 | CCc1ccc(CCC(=O)Nc2ncc(Cc3ccc(Cl)cc3)s2)o1 | 0.271 µM | 0.367 µM | > 100 µM | 0.623 µM | > 100 µM | 0.427 µM | > 100 µM | 0.684 µM | > 100 µM | 0.403 µM | > 100 µM | 0.375 µM | > 100 µM | –
2 | CC1=C2[C@@H](CC1)[C@]1(C)O[C@@](C(C)C)(C[C@H]1OC(=O)CO)[C@H]2OC(=O)C1CC1c1ccccc1 (some centres undefined) | 12.8 µM | 13.5 µM | 28.3 µM | 15.2 µM | 29.7 µM | 17.7 µM | 33.2 µM | 15.5 µM | 32.3 µM | 7.36 µM | 21.6 µM | 16.4 µM | 32.6 µM | 29.3 µM
3 | Cc1ccccc1NC(=O)c1sc2nc(C)c(C(=O)/C=C/c3ccccc3)cc2c1N | 1.58 µM | 1.18 µM | 3.21 µM | 1.15 µM | 2.7 µM | 0.896 µM | 1.96 µM | 1.81 µM | 8.59 µM | 1.33 µM | 3.77 µM | 1 µM | 2.45 µM | 6.12 µM
4 | COc1ccc2c(c1)[nH]c(=O)c1c3cccc(F)c3cn21 | 0.0463 µM | 0.0306 µM | – | 0.641 µM | 51.3 µM | 0.0458 µM | 13.9 µM | 0.469 µM | > 100 µM | 0.0345 µM | > 31.9 µM | 0.0343 µM | 25.8 µM | > 100 µM
5 | COc1cc(Nc2ncc(-c3ccccc3)o2)cc(OC)c1 | > 25 µM | > 25 µM | > 25 µM | > 25 µM | > 25 µM | > 25 µM | > 25 µM | > 25 µM | > 25 µM | > 25 µM | > 25 µM | > 25 µM | > 25 µM | > 25 µM
6 | COc1ccc(Cc2coc3ccccc3c2=O)cc1OC | – | – | > 100 µM | – | > 100 µM | – | > 100 µM | – | > 100 µM | – | > 100 µM | – | > 100 µM | > 100 µM
7 | CNC(=O)c1cc(Oc2ccc(NC(=O)Nc3ccc(Cl)c(C(F)(F)F)c3)c(F)c2)ccn1 | 1.38 µM and 1.28 µM | 1.82 µM and 1.43 µM | 8.83 µM and > 10 µM | 2.83 µM and 2.33 µM | 14.5 µM and > 10 µM | 0.944 µM and 0.792 µM | 10.8 µM and 8.8 µM | 0.664 µM and 0.336 µM | 2.13 µM and 1.86 µM | 2.82 µM and 2.7 µM | > 64.6 µM | 2.23 µM and 2.47 µM | 14.9 µM and > 10 µM | 6.75 µM and 8.81 µM
8 | COc1ncc(Nc2ncc([C@@H](C)N3CCN(S(C)(=O)=O)CC3)cc2-c2nc(C)nc(N)n2)cc1F | 2.16 µM | 0.0355 µM | > 100 µM | 0.192 µM | 75.1 µM | 1.87 µM | > 100 µM | 2.05 µM | > 69.6 µM | < 0.0139 µM | > 100 µM | 2.82 µM | > 100 µM | 38.8 µM
9 | O=C(/C=C\c1ccc([N+](=O)[O-])cc1)c1ccccc(=O)c1O | – | – | 3.85 µM | – | 15.5 µM | – | 2.35 µM | – | 6.93 µM | – | 9.84 µM | – | > 21.6 µM | 6.5 µM
10 | CC1(C)CNc2cc(NC(=O)c3cccnc3NCc3ccncc3)ccc21 | 20.2 µM | 32.2 µM | > 100 µM | 50.9 µM | > 100 µM | 34.3 µM | > 100 µM | 17.2 µM | 47.8 µM | 25.4 µM | > 100 µM | 48.2 µM | > 100 µM | 88.6 µM
11 | CC(C)(C)C1CCC2c3c([nH]c4ccccc34)C3C(=O)N(c4ccc(Cl)cc4)C(=O)C3C2C1 (centres undefined) | 54.3 µM and > 10 µM | 34.5 µM and > 10 µM | > 100 µM | > 100 µM | > 100 µM | 65.3 µM and > 10 µM | > 100 µM | – | > 10 µM | 37.4 µM and > 10 µM | > 100 µM | 53.9 µM and > 10 µM | > 100 µM | > 100 µM
12 | CC1=C(c2ccccc2)C(O)(c2ccccc2)C(C)C1=O (centres undefined) | 4.72 µM | 10.5 µM | > 100 µM | 11.6 µM | > 100 µM | 9.95 µM | > 100 µM | 29.7 µM | > 100 µM | 22.8 µM | > 100 µM | 6.18 µM | > 100 µM | 33.7 µM
13 | O=S(=O)(NNc1ccccc1)c1ccccc1 | – | – | 27.2 µM | – | 32.7 µM | – | 29.4 µM | – | 44.3 µM | – | 22.9 µM | – | > 100 µM | 17.3 µM
14 | CCOC(=O)c1cc2c(cc1Cl)SC(=Nc1ccccc1)N(S(=O)(=O)c1ccc(Cl)cc1)S2(=O)=O | 11.2 µM | 19.4 µM | > 100 µM | 16 µM | 32.6 µM | 6.32 µM | 21.9 µM | 12.1 µM | 30.4 µM | 12.2 µM | 28.6 µM | 14.6 µM | 32.6 µM | 26 µM
15 | Nc1ccc(C2=CC(c3ccc(Cl)cc3)N3C=CSC3=N2)cc1 (centres undefined) | 2.86 µM | 2.79 µM | 6.98 µM | 4.38 µM | 16.4 µM | 1.66 µM | 3.2 µM | 26.3 µM | 59.3 µM | 8.8 µM | > 100 µM | 2.07 µM | 4.51 µM | 7.43 µM
16 | COCc1c(-c2cc3cc(C)cc(OC)c3s2)c2c(N)ncnn2c1CN1CCNC(=O)C1 | 4.12 µM | 3.68 µM | 19.9 µM | 2.6 µM | 15.9 µM | 5.08 µM | 44.4 µM | 2.83 µM | 8.61 µM | 8.54 µM | > 100 µM | 3.5 µM | > 100 µM | 35.4 µM
17 | Cc1ccc(/C=N/Nc2nc(Nc3ccccc3)nc(-n3nc(C)cc3C)n2)cc1 | 2.47 µM | 3.55 µM | > 100 µM | 5.27 µM | 29.2 µM | 3.18 µM | 11.7 µM | 5.72 µM | 27 µM | 2.67 µM | 23.6 µM | 5.75 µM | > 100 µM | 10.8 µM
18 | COc1ccc2c(c1)c(-c1nc(-c3c[nH]c4ccncc34)cs1)cn2C | 1.78 µM | 1.2 µM | 2.62 µM | 1.82 µM | 3.45 µM | 1.69 µM | 3.22 µM | 1.84 µM | 3.4 µM | 1.6 µM | 3.06 µM | 1.75 µM | 3.27 µM | 3.26 µM
19 | COc1ccc(CN2c3ccccc3Sc3ccccc32)c(C(F)(F)F)c1 | 0.446 µM | 0.681 µM | 10.9 µM | 0.604 µM | 35.6 µM | 0.419 µM | 21.8 µM | 1.18 µM | 14.7 µM | 0.546 µM | > 100 µM | 0.443 µM | > 100 µM | > 100 µM
20 | CCN(Cc1ccccc1)C1CCN(Cc2cc(Br)ccc2O)CC1 | 20.7 µM | 20.1 µM | > 100 µM | > 100 µM | > 100 µM | 23.2 µM | > 100 µM | 85.4 µM | > 100 µM | 38.9 µM | > 100 µM | 27.2 µM | > 100 µM | 54.5 µM
21 | CN(C)c1ccc2oc(=O)c3ccccc3c2c1 | – | – | > 100 µM | – | 80.5 µM | – | > 100 µM | – | 84.1 µM | – | > 100 µM | – | > 100 µM | > 100 µM
22 | CCC(C)[C@H](NC(=O)Nc1cc(C(F)(F)F)cc(C(F)(F)F)c1)C(=O)N[C@@H](Cc1cn(C)cn1)C(=O)OC (some centres undefined) | 1.11 µM | 0.711 µM | 1.4 µM | 0.919 µM | 1.82 µM | 0.606 µM | 1.21 µM | 1.4 µM | 1.89 µM | 0.715 µM | 1.77 µM | 0.69 µM | 1.53 µM | 1.98 µM
23 | O=C(Nc1cccc(O)c1)c1ccc(NC2=C(Cl)C(=O)N(Cc3ccc(Cl)cc3Cl)C2=O)cc1 | 8.29 µM | 2.75 µM | > 22.1 µM | 8.44 µM | > 58.5 µM | 6.89 µM | > 56.4 µM | 5.29 µM | 14.5 µM | 1.75 µM | 4.28 µM | 2.21 µM | 6.42 µM | > 55.9 µM
24 | COc1ccc2c(c1)nc(C(=O)c1ccco1)c(C(F)(F)F)[n+]2[O-] | > 100 µM | > 100 µM | > 100 µM | > 100 µM | > 100 µM | > 100 µM | > 100 µM | > 100 µM | > 100 µM | 77.4 µM | > 100 µM | > 100 µM | > 100 µM | > 100 µM
25 | COc1cccc(CC(C)=C(c2ccc(OCCN3CCCCC3)cc2)c2ccc(OCCN3CCCCC3)cc2)c1 | 1.67 µM | 0.82 µM | 2.79 µM | 2.08 µM | 4.21 µM | 2.25 µM | 4.26 µM | 2.73 µM | 5.71 µM | 1.83 µM | 3.75 µM | 1.74 µM | 3.78 µM | 3.76 µM
